Data: patent US10947271B2, “Antibacterial agents” (THE UNIVERSITY OF QUEENSLAND, priority 2014, dated 2021)

What was measured:
[1] = test system: Staphylococcus aureus MRSA ATCC 43300; assay: MIC assay, S. aureus MRSA ATCC 43300; format: cell-based; settings: 24 h incubation, visual reading
Summary of the method: (§1)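 MHB broth microdilution, twofold series, compounds 8–0.003 μg/ml; mid-log inoculum 5×10e5 CFU/mL; 37° C, 24 h; MIC read visually as lowest concentration without growth.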

[2] = test system: Enterococcus faecium MDR Van A ATCC 51559; assay: MIC assay, E. faecium MDR Van A ATCC 51559; format: cell-based; settings: 24 h incubation, visual reading
Summary of the method: as §1

[3] = test system: MRSA (Strain ATCC 43300); assay: Murine thigh infection model (MRSA); format: in vivo, Staphylococcus aureus; settings: neutropenic CD1 mice
Description: Summary: Adult (8 week old) female CD1 mice were made neutropenic by two injections of cyclophosphamide 4 days and 1 day prior to infection. An inoculum of 10^5 cfu MRSA (Strain ATCC 43300) was injected intramuscularly into both left and right thighs of all mice. […] After an additional two hours, a 50 μL sample of blood was obtained from the tail bleed to analyse for presence of antibiotic compound. […] Thighs were then removed, weighed and homogenised in a fixed volume of saline. The homogenate solution was filtered, diluted and seeded onto agar plates, which were incubated overnight at 37° C. Colony counts were used to establish the cfu in the thigh homogenates, the cfu/thigh, and the cfu/g of thigh.
Compound preparation: Cyclophosphamide monohydrate (Sigma) was dissolved in sterile saline to a concentration of 30 mg/mL. Likewise, vancomycin (Sigma) and MCC compounds were also dissolved in sterile saline to a final concentration of 60 mg/mL and 18.5 mg/mL respectively. All compounds were prepared in low binding Eppendorf tubes and kept at −20° C. until used.
In vivo experimental assay: Eight week old female outbred CD1 mice (UQBR-AIBN) were rendered neutropenic by injecting two doses of cyclophosphamide intraperitoneally 4 days (150 mg/kg) and 1 day (100 mg/kg) prior to experimental infection. The infection model using MRSA was established by intramuscular injection of 50 μL of early-log-phase bacterial MRSA suspension (around 2×10^6 cfu/mL) in saline into both thigh muscles. […] Untreated animals received equivalent volume of saline (Baxter). The mice were monitored for signs of normal behaviour (i.e. grooming, eating, drinking, sleeping, and alertness) during and following dosing. Two hours after saline/antibiotic treatment, 0.05 mL of blood was collected by tail incision. 24 hours after MRSA infection, mice were euthanized and blood collected from the heart by cardiac puncture (saline group) or by tail incision (Vancomycin and MCC compound treated groups) as outlined in FIG. 1. For each mouse, both thighs were collected aseptically by cutting the leg at the hip and knee, placed in 10 mL of cold sterile saline and the individual weight of each thigh recorded.
Preparation of injectable MRSA solution: An MRSA subculture bacterial isolate (ATCC43300) was taken from the storage at −80° C. and freshly seeded on agar plates for overnight (O/N) growth. From the O/N culture preparation, a single colony was diluted into 10-12 mL of Mueller Hinton broth (MHB) and incubated O/N at 37° C. A log-phase subculture was obtained by adding 100 μL of O/N subculture in 10 mL MHB and incubated for a further 2-3 hours. Finally, the OD600 value of the bacterial suspension was determined and the colony forming units per millilitre (cfu/mL) extrapolated. A full dilution of the bacterial cell suspension in saline was achieved by washing (3220×g for 10 min) and the OD600 in saline determined. The suspension was then diluted out accordingly in order to achieve a 2×10^6 cfu/mL solution (10^5 cfu in 50 μL/thigh).
Thus, 10 μL of the injectable MRSA suspension was diluted down to 10-1000 fold, each dilution plated out onto agar plates and incubated at 37° C. for 24 hours.
Thigh homogenates and CFU determination: Thighs were homogenized at 20,000 rpm for 15 seconds using a Polytron MR2500E using a […] probe (all Kinematica).

[4] = test system: Streptococcus pneumoniae MDR ATCC 700677; assay: MIC assay, S. pneumoniae MDR ATCC 700677; format: cell-based; settings: 24 h incubation, visual reading
Summary of the method: as §1

[5] = single subcutaneous dose 10 mg/kg

Structure (SMILES) | Minimum Inhibitory Concentration (MIC) Staph. aureus ATCC43300 [1] | Minimum Inhibitory Concentration (MIC) E. faecium ATCC51559 [2] | Average Reduction log Δcfu MRSA/thigh after 26 h [3, 5] | Minimum Inhibitory Concentration (MIC) S. pneumoniae ATCC 700677 [4] | Average Reduction log Δcfu MRSA/thigh after 26 h ([3]; single subcutaneous dose 50 mg/kg)
CN[C@H](CC(C)C)C(=O)N[C@H]1C(=O)N[C@@H](CC(N)=O)C(=O)N[C@H]2C(=O)N[C@H]3C(=O)N[C@H](C(=O)N[C@H](C(=O)NCCCC[C@H](NC(=O)[C@H](CCCCN(C)C)NC(=O)c4ccc(Oc5ccccc5)cc4)C(=O)O)c4cc(O)cc(O)c4-c4cc3ccc4O)[C@H](O)c3ccc(c(Cl)c3)Oc3cc2cc(c3O[C@@H]2O[C@H](CO)[C@@H](O)[C@H](O)[C@H]2O[C@H]2C[C@](C)(N)[C@H](O)[C@H](C)O2)Oc2ccc(cc2Cl)[C@H]1O [MCC_007221] | xxx (xxx = 0.1-<1) | x (x = >4) | x (x = 0-2) | xx (xx = 1-4) | –
CCCCCCCCCCCC(=O)N[C@@H](CCCCN)C(=O)N[C@@H](CCCCN)C(=O)N[C@@H](CCCCNC(=O)[C@H]1NC(=O)[C@H]2NC(=O)[C@H](NC(=O)[C@@H]3NC(=O)[C@H](CC(N)=O)NC(=O)[C@H](NC(=O)[C@@H](CC(C)C)NC)[C@H](O)c4ccc(c(Cl)c4)Oc4cc3cc(c4O[C@@H]3O[C@H](CO)[C@@H](O)[C@H](O)[C@H]3O[C@H]3C[C@](C)(N)[C@H](O)[C@H](C)O3)Oc3ccc(cc3Cl)[C@H]2O)c2ccc(O)c(c2)-c2c(O)cc(O)cc21)C(=O)O [MCC_000347] | xxxxx (xxxxx = <0.01) | xx (xx = 1-4) | xxxx (xxxx = >6) | xxxx (xxxx = 0.01-<0.1) | –
CCCCCCCCCC(=O)N[C@@H](CCCCN)C(=O)N[C@@H](CCCCN)C(=O)N[C@@H](CCCCN)C(=O)NCCNC(=O)[C@H]1NC(=O)[C@H]2NC(=O)[C@H](NC(=O)[C@@H]3NC(=O)[C@H](CC(N)=O)NC(=O)[C@H](NC(=O)[C@@H](CC(C)C)NC)[C@H](O)c4ccc(c(Cl)c4)Oc4cc3cc(c4O[C@@H]3O[C@H](CO)[C@@H](O)[C@H](O)[C@H]3O[C@H]3C[C@](C)(N)[C@H](O)[C@H](C)O3)Oc3ccc(cc3Cl)[C@H]2O)c2ccc(O)c(c2)-c2c(O)cc(O)cc21 [MCC_005181] | xxxxx (xxxxx = <0.01) | xx (xx = 1-4) | xx (xx = 2-4) | xxxx (xxxx = 0.01-<0.1) | –
CCCCCCCCC(=O)NC(CCCCN(C)C)C(=O)NCCCNC(=O)C1NC(=O)C2NC(=O)C(NC(=O)C3NC(=O)C(CC(N)=O)NC(=O)C(NC(=O)C(CC(C)C)NC)C(O)c4ccc(c(Cl)c4)Oc4cc3cc(c4OC3OC(CO)C(O)C(O)C3OC3CC(C)(N)C(O)C(C)O3)Oc3ccc(cc3Cl)C2O)c2ccc(O)c(c2)-c2c(O)cc(O)cc21 (stereo not shown) [MCC_007338] | xxx (xxx = 0.1-<1) | x (x = >4) | xx (xx = 2-4) | xxx (xxx = 0.1-<1) | –
CCCCCCCCCC(=O)N[C@@H](CCCCN)C(=O)N[C@@H](CCCCN)C(=O)N[C@@H](CCCCN)C(=O)NCCCNC(=O)[C@H]1NC(=O)[C@H]2NC(=O)[C@H](NC(=O)[C@@H]3NC(=O)[C@H](CC(N)=O)NC(=O)[C@H](NC(=O)[C@@H](CC(C)C)NC)[C@H](O)c4ccc(c(Cl)c4)Oc4cc3cc(c4O[C@@H]3O[C@H](CO)[C@@H](O)[C@H](O)[C@H]3O[C@H]3C[C@](C)(N)[C@H](O)[C@H](C)O3)Oc3ccc(cc3Cl)[C@H]2O)c2ccc(O)c(c2)-c2c(O)cc(O)cc21 [MCC_005201] | xxxx (xxxx = 0.01-<0.1) | xx (xx = 1-4) | xx (xx = 2-4) | xxxx (xxxx = 0.01-<0.1) | –
CCCCCCCCC(=O)N[C@@H](CCCCN)C(=O)N[C@@H](CCCCN)C(=O)NCCNC(=O)[C@H]1NC(=O)[C@H]2NC(=O)[C@H](NC(=O)[C@@H]3NC(=O)[C@H](CC(N)=O)NC(=O)[C@H](NC(=O)[C@@H](CC(C)C)NC)[C@H](O)c4ccc(c(Cl)c4)Oc4cc3cc(c4O[C@@H]3O[C@H](CO)[C@@H](O)[C@H](O)[C@H]3O[C@H]3C[C@](C)(N)[C@H](O)[C@H](C)O3)Oc3ccc(cc3Cl)[C@H]2O)c2ccc(O)c(c2)-c2c(O)cc(O)cc21 [MCC_005165] | xxxx (xxxx = 0.01-<0.1) | x (x = >4) | xxx (xxx = 4-6) | xxxx (xxxx = 0.01-<0.1) | –
CCCCCCCCCC(=O)N[C@@H](CCCCN)C(=O)N[C@@H](CCCCN)C(=O)N1CCC(CNC(=O)[C@H]2NC(=O)[C@H]3NC(=O)[C@H](NC(=O)[C@@H]4NC(=O)[C@H](CC(N)=O)NC(=O)[C@H](NC(=O)[C@@H](CC(C)C)NC)[C@H](O)c5ccc(c(Cl)c5)Oc5cc4cc(c5O[C@@H]4O[C@H](CO)[C@@H](O)[C@H](O)[C@H]4O[C@H]4C[C@](C)(N)[C@H](O)[C@H](C)O4)Oc4ccc(cc4Cl)[C@H]3O)c3ccc(O)c(c3)-c3c(O)cc(O)cc32)CC1 [MCC_005489] | xxxx (xxxx = 0.01-<0.1) | xx (xx = 1-4) | xxx (xxx = 4-6) | xxxx (xxxx = 0.01-<0.1) | –
CCCCCCCCCC(=O)N[C@@H](CCCCN)C(=O)NCCCNC(=O)[C@H]1NC(=O)[C@H]2NC(=O)[C@H](NC(=O)[C@@H]3NC(=O)[C@H](CC(N)=O)NC(=O)[C@H](NC(=O)[C@@H](CC(C)C)NC)[C@H](O)c4ccc(c(Cl)c4)Oc4cc3cc(c4O[C@@H]3O[C@H](CO)[C@@H](O)[C@H](O)[C@H]3O[C@H]3C[C@](C)(N)[C@H](O)[C@H](C)O3)Oc3ccc(cc3Cl)[C@H]2O)c2ccc(O)c(c2)-c2c(O)cc(O)cc21 [MCC_005200] | xxxx (xxxx = 0.01-<0.1) | xx (xx = 1-4) | xx (xx = 2-4) | xxxx (xxxx = 0.01-<0.1) | –
CCCCCCCCC(=O)N[C@@H](CCCCN)C(=O)NCCCNC(=O)[C@H]1NC(=O)[C@H]2NC(=O)[C@H](NC(=O)[C@@H]3NC(=O)[C@H](CC(N)=O)NC(=O)[C@H](NC(=O)[C@@H](CC(C)C)NC)[C@H](O)c4ccc(c(Cl)c4)Oc4cc3cc(c4O[C@@H]3O[C@H](CO)[C@@H](O)[C@H](O)[C@H]3O[C@H]3C[C@](C)(N)[C@H](O)[C@H](C)O3)Oc3ccc(cc3Cl)[C@H]2O)c2ccc(O)c(c2)-c2c(O)cc(O)cc21 [MCC_005203] | – | – | xxx (xxx = 4-6) | – | –
CCCCCCCCCC(=O)N[C@@H](Cc1c[nH]c2ccccc12)C(=O)N[C@H](CC(N)=O)C(=O)N[C@@H](CC(=O)O)C(=O)N[C@@H]1C(=O)NCC(=O)N[C@@H](CCCN)C(=O)N[C@@H](CC(=O)O)C(=O)N[C@H](C)C(=O)N[C@@H](CC(=O)O)C(=O)NCC(=O)N[C@H](CO)C(=O)N[C@@H]([C@H](C)CC(=O)O)C(=O)N[C@@H](CC(=O)c2ccccc2N)C(=O)O[C@@H]1C [Daptomycin, reference compound] | – | – | – | – | xxx (xxx = 4-6)
